Results as given in patent US11702414B2, “Thiadiazole IRAK4 inhibitors” (Gilead Sciences, Inc., priority 2018, dated 2023).
Like-named read-outs stand apart in the source and are kept apart here.

Experiments:
IRAK4 enzyme = IRAK4 enzyme (Homo sapiens (Human), UniProt Q9NWZ3); assay: IRAK4 Biochemical Assay (TR-FRET, STK1 KinEASE)
TNFα = assay: IRAK4 Monocyte TNFα Cell Based Assay; parameters: species or system human
[1] = Homo sapiens, Monocyte, read-out: EC50MONO TNF HTRF
[2] = Homo sapiens, Monocyte, human monocytes, second part of Table 2 (compounds 33-343), unit inferred, read-out: EC50MONO TNF HTRF

Chain of IRAK4 enzyme (Q9NWZ3 whole entry): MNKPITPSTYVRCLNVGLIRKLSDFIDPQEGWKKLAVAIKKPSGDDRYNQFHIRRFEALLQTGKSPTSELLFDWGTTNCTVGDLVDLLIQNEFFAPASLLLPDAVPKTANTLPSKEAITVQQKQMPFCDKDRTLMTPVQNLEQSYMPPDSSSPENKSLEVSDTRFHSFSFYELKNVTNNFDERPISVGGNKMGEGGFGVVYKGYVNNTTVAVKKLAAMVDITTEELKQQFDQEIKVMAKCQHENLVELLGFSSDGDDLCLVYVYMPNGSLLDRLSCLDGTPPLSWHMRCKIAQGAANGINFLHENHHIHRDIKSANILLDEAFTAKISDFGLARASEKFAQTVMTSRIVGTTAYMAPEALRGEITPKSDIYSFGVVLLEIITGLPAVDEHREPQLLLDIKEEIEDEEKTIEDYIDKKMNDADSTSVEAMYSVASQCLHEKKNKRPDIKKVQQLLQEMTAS

Compound	IC50 (IRAK4 enzyme)	EC50 (TNFα; [2])	also measured
CC(=O)N1C2CCC1CN(c1nnc(-c3cnc(-c4ccc5cc(C#N)cnn45)cc3NC3(C)COC3)s1)C2 [Compound 264, 7-(5-(5-(8-acetyl-3,8-diazabicyclo[3.2.1]octan-3-yl)-1,3,4-thiadiazol-2-yl)-4-((3-methyloxetan-3-yl)amino)pyridin-2-yl)pyrrolo[1,2-b]pyridazine-3-carbonitrile]	0.59 nM	–	EC50 (TNFα; [1]): 2.7 nM
CC1(O)CCN(c2nnc(-c3cnc(-c4ccc5cc(C#N)cnn45)cc3NC3(C)COC3)s2)CC1 [Example 181, 7-(5-(5-(4-hydroxy-4-methylpiperidin-1-yl)-1,3,4-thiadiazol-2-yl)-4-((3-methyloxetan-3-yl)amino)pyridin-2-yl)pyrrolo[1,2-b]pyridazine-3-carbonitrile]	0.36 nM	18.4 nM	–
CC(=O)N1CCC2(CC1)CN(c1nnc(-c3cnc(-c4ccc5cc(C#N)cnn45)cc3NC3COC3)s1)C2 [Example 75, 7-(5-(5-(7-acetyl-2,7-diazaspiro[3.5]nonan-2-yl)-1,3,4-thiadiazol-2-yl)-4-(oxetan-3-ylamino)pyridin-2-yl)pyrrolo[1,2-b]pyridazine-3-carbonitrile]	0.24 nM	3.2 nM	–
(S)-1-(5-(6-(3-cyanopyrrolo[1,2-b]pyridazin-7-yl)-4-(oxetan-3-ylamino)pyridin-3-yl)-1,3,4-thiadiazol-2-yl)-N-methylpyrrolidine-2-carboxamide [Compound 332]	–	–	IC50 (IRAK4 enzyme; second part of Table 2 (compounds 33-343), unit inferred, read-out: IC50 IRAK4-HTBS): 1.61 nM; EC50 (TNFα; human monocytes, second part of Table 2 (compounds 33-343), unit inferred, read-out: EC50MONO TNF HTRF): 435 nM
CC(=O)N[C@H]1CN(c2nnc(-c3cnc(-c4ccc5cc(C#N)cnn45)cc3NC(C)C)s2)CC12CC2 [Compound 323, (R)-N-(5-(5-(6-(3-cyanopyrrolo[1,2-b]pyridazin-7-yl)-4-(isopropylamino)pyridin-3-yl)-1,3,4-thiadiazol-2-yl)-5-azaspiro[2.4]heptan-7-yl)acetamide]	0.62 nM	3.7 nM	–
CC(C)Nc1cc(-c2ccc3cc(C#N)cnn23)ncc1-c1nnc(C(C)(C)O)s1 [Example 80, 7-(5-(5-(2-hydroxypropan-2-yl)-1,3,4-thiadiazol-2-yl)-4-(isopropylamino)pyridin-2-yl)pyrrolo[1,2-b]pyridazine-3-carbonitrile]	1.16 nM	114 nM	–
CC(C)Nc1cc(-c2ccc3cc(C#N)cnn23)ncc1-c1nnc(N2CC[C@@](C)(O)[C@@H](F)C2)s1 [Example 186, 7-(5-(5-((3S,4R)-3-fluoro-4-hydroxy-4-methylpiperidin-1-yl)-1,3,4-thiadiazol-2-yl)-4-(isopropylamino)pyridin-2-yl)pyrrolo[1,2-b]pyridazine-3-carbonitrile]	0.95 nM	8.4 nM	–
CC(=O)NC12CCC(c3nnc(-c4cnc(-c5ccc6cc(C#N)cnn56)cc4NC4COC4)s3)(C1)C2 [Compound 334, N-(4-(5-(6-(3-cyanopyrrolo[1,2-b]pyridazin-7-yl)-4-(oxetan-3-ylamino)pyridin-3-yl)-1,3,4-thiadiazol-2-yl)bicyclo[2.1.1]hexan-1-yl)acetamide]	2.41 nM	98.9 nM	–
CC(C)Nc1cc(-c2ccc3cc(C#N)cnn23)ncc1-c1nnc(N2CCN(C3COC3)CC2)s1 [Example 304, 7-(4-(isopropylamino)-5-(5-(4-(oxetan-3-yl)piperazin-1-yl)-1,3,4-thiadiazol-2-yl)pyridin-2-yl)pyrrolo[1,2-b]pyridazine-3-carbonitrile]	0.54 nM	9.8 nM	–
CC(C)Nc1cc(-c2ccc3cc(C#N)cnn23)ncc1-c1nnc(C2CCC(C#N)CC2)s1 (stereo not drawn) [Compound 333, 7-(5-(5-(4-cyanocyclohexyl)-1,3,4-thiadiazol-2-yl)-4-(isopropylamino)pyridin-2-yl)pyrrolo[1,2-b]pyridazine-3-carbonitrile]	1.99 nM	1000 nM	–
CC(=O)N1[C@@H]2COC[C@H]1CN(c1nnc(-c3cnc(-c4ccc5cc(C#N)cnn45)cc3NC3CCOCC3)s1)C2 [Compound 269, 7-(5-(5-((1R,5S)-9-acetyl-3-oxa-7,9-diazabicyclo[3.3.1]nonan-7-yl)-1,3,4-thiadiazol-2-yl)-4-((tetrahydro-2H-pyran-4-yl)amino)pyridin-2-yl)pyrrolo[1,2-b]pyridazine-3-carbonitrile]	0.8 nM	–	EC50 (TNFα; [1]): 5.8 nM
CC(C)Nc1cc(-c2ccc3cc(C#N)cnn23)ncc1-c1nnc(C2CCOCC2)s1 [Example 32, 7-(4-(isopropylamino)-5-(5-(tetrahydro-2H-pyran-4-yl)-1,3,4-thiadiazol-2-yl)pyridin-2-yl)pyrrolo[1,2-b]pyridazine-3-carbonitrile]	–	–	IC50 (IRAK4 enzyme; compounds 1-32, read-out: IC50 HTRF): < 1 nM; EC50 (TNFα; Homo sapiens, Monocyte, human monocytes, LPS-stimulated, compounds 1-32, read-out: EC50 TNF): 211 nM
